Source: PubChem BioAssay (NCI)
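Step 1: Grow cells in 96-well plates. Step 2: Expose to compound for 48 hours at 5 concentrations. Step 3: Interpolate endpoints linearly; if unreached, use highest concentration. GI50: concentration for 50% inhibition of growth. Definition used: TGI = concentration required for complete inhibition of growth.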

Assays:
Test in all cases: growth of human tumour cells (NCI), 48 h
SW-620 colon = system: SW-620 colon
TK-10 renal = system: TK-10 renal
OVCAR-4 ovarian = system: OVCAR-4 ovarian
MALME-3M melanoma = system: MALME-3M melanoma
LOX IMVI melanoma = system: LOX IMVI melanoma
SK-MEL-28 melanoma = system: SK-MEL-28 melanoma
EKVX NSCLC = system: EKVX NSCLC
OVCAR-5 ovarian = system: OVCAR-5 ovarian
RXF 393 renal = system: RXF 393 renal
MCF7 breast = system: MCF7 breast

Row | SMILES | TGI (SW-620 colon) | TGI (TK-10 renal) | TGI (OVCAR-4 ovarian) | TGI (MALME-3M melanoma) | TGI (LOX IMVI melanoma) | TGI (SK-MEL-28 melanoma) | TGI (EKVX NSCLC) | TGI (OVCAR-5 ovarian) | TGI (RXF 393 renal) | GI50 (SW-620 colon) | GI50 (TK-10 renal) | GI50 (OVCAR-4 ovarian) | GI50 (MALME-3M melanoma) | GI50 (LOX IMVI melanoma) | GI50 (SK-MEL-28 melanoma) | GI50 (EKVX NSCLC) | GI50 (OVCAR-5 ovarian) | GI50 (MCF7 breast) | TGI (MCF7 breast) | GI50 (RXF 393 renal)
1 | Cn1cnnc1Sc1c([N+](=O)[O-])nc(-c2ccc([N+](=O)[O-])cc2)n1C | 31.3 µM | 32.9 µM | 29.5 µM | 29.5 µM | 26.8 µM | 29.6 µM | 76.1 µM | 52 µM |  |  |  |  |  |  |  |  |  |  |  | 
2 | CCCCn1c(-c2ccccc2)cs/c1=N\NC(=O)Cn1c(C)nc2ccccc21 | > 100 µM | > 100 µM | > 100 µM | > 100 µM | > 100 µM |  | > 100 µM | > 100 µM | 94.1 µM |  |  |  |  |  |  |  |  |  |  | 
3 | O=C(O)C12C=CC(C1)c1ccccc12 (stereo unspecified) | > 100 µM | > 100 µM | > 100 µM | > 100 µM | > 100 µM | > 100 µM |  | > 100 µM |  |  |  |  |  |  |  |  |  |  |  | 
4 | C/C(=N/NC(N)=S)C(CN1CCOCC1)C(C1=C(O)c2ccccc2OC1)c1ccccc1 (stereo unspecified) | > 100 µM | > 100 µM | > 100 µM | > 100 µM | > 100 µM |  | > 100 µM | > 100 µM | > 100 µM |  |  |  |  |  |  |  |  |  |  | 
5 | N.N.N.N.O=S([O-])[O-].[Co+3].[N-]=[N+]=[N-] | > 100 µM | > 100 µM | > 100 µM | > 100 µM | > 100 µM | > 100 µM | > 100 µM | > 100 µM |  | > 100 µM | > 100 µM | > 100 µM | > 100 µM | > 100 µM | > 100 µM | > 100 µM | > 100 µM |  |  | 
6 | O=C1C(=O)N(c2cc(Cl)ccc2Cl)C(=O)C(=O)C1c1nc2ccccc2s1 | > 100 µM | > 100 µM | > 100 µM | > 100 µM | > 100 µM | > 100 µM | > 100 µM | > 100 µM | > 100 µM |  |  |  |  |  |  |  |  |  |  | 
7 | O=C1c2ccccc2-c2c1c1ccccc1c(=O)n2CCNCCNCCNCCNCCn1c2c(c3ccccc3c1=O)C(=O)c1ccccc1-2 | 1.17 µM | 1.35 µM |  |  | 0.0703 µM | > 100 µM | 2.7 µM | > 100 µM |  | 0.0405 µM | 0.177 µM |  |  | 0.0182 µM | 1.95 µM | 0.677 µM | > 100 µM | 0.0501 µM | 1.71 µM | 
8 | CCOC(=O)NN1C(=O)C(=P(c2ccccc2)(c2ccccc2)c2ccccc2)C(C(=O)OC)=C1C | > 100 µM | > 100 µM | > 100 µM | > 100 µM | > 100 µM |  | > 100 µM | > 100 µM | > 100 µM |  |  |  |  |  |  |  |  |  |  | 
9 | CNC(=O)NCCCCC(NC(C)=O)C(=O)NCc1ccccc1 (stereo unspecified) | > 100 µM | > 100 µM | > 100 µM | > 100 µM | > 100 µM | > 100 µM | > 100 µM | > 100 µM | > 100 µM |  |  |  |  |  |  |  |  |  |  | 
10 | COC(OC)c1cccnc1C | > 100 µM | > 100 µM | > 100 µM | > 100 µM | > 100 µM | > 100 µM | > 100 µM | > 100 µM | > 100 µM |  |  |  |  |  |  |  |  |  |  | 
11 | COc1cc(C2CC(c3ccc(Cl)cc3)=NN2C(C)=O)ccc1Oc1ccnc2cc(Cl)ccc12 (stereo unspecified) | > 100 µM |  |  | > 100 µM |  |  |  | > 100 µM | 20.1 µM | > 100 µM |  |  | > 100 µM |  |  |  | > 100 µM | > 100 µM | > 100 µM | 3.32 µM
